These results are taken from article PMC11249953, “c-KIT inhibitors reduce pathology and improve behavior in the Tg(SwDI) model of Alzheimer’s disease” (Life Science Alliance, 2024).

The test system of one experiment is beclin-1 in TgAPP mice. Put plainly: Western blot for beclin-1 in brain. The class given is in vivo, mouse. To be noted: BK40143 5 mg/kg, BK40197 45 mg/kg, vs DMSO. Here is the method: Brain hemispheres from treated and untreated animals were lysed in 1x STEN buffer and protein concentrations were measured via BCA assay. Samples were normalized to 1 μg/μl and added to 2x Laemmli loading buffer + β-mercaptoethanol and boiled for 10 min to denature the protein. 15 μg of sample were then loaded in 4–12% Bis–Tris gels with MES buffer and electrophoresed, before transfer to a nitrocellulose membrane, where they were blocked with 5% dry milk in 1x TBST and incubated overnight with an anti-Beclin-1 primary antibody (cat. #3739S; Cell Signaling) or a phospho-c-KIT antibody (cat. #44-496G; Invitrogen). The next day, the membrane was washed and treated for 1 h with a goat anti-rabbit HRP-linked secondary followed by SuperSignal West Dura Extended Duration Substrate (cat. #37071; Thermo Fisher Scientific) and imaged on an Amersham Imager 600. This procedure was repeated the next day with an anti-mouse actin primary as a loading control.
A general note: A western blot detects proteins with antibodies after separation by electrophoresis.

Experiment [1] has as its system amyloid-beta in TgAPP mice. Put plainly: Immunohistochemistry for amyloid-beta (6E10), hippocampus. It is filed as in vivo, mouse. To be noted: BK40143 5 mg/kg, BK40197 45 mg/kg, vs DMSO. Here is the method: Staining for amyloid-beta and microglia was performed on left brain hemispheres collected from treated and untreated mice. Brains were cryoprotected with 30% sucrose and sectioned at 30 μm on a cryostat. Sections were then treated with an anti-amyloid beta (6E10, cat. #803001; BioLegend) or anti-IBA1 (cat. # 018-28523; Wako Chemicals) primary followed by either an AlexaFluor secondary (Thermo Fisher Scientific) and DAPI mounting medium (Vector Labs) or a biotinylated secondary and 3, 3′ diaminobenzidine chromogen substrate. Slides were imaged on either a Leica DMi8 light microscope or a Zeiss LSM 800 confocal microscope.

Another experiment deals with T1, ABL1 (Homo sapiens, UniProt P00519).
T1 construct: DNA label for qPCR read-out (T7 phage fusion or DNA tag); purchased Eurofins DiscoverX Corporation; host or cells: T7 phage in E. coli (BL21-derived) or HEK-293
T1 sequence (P00519 whole entry, the tested form may be a part): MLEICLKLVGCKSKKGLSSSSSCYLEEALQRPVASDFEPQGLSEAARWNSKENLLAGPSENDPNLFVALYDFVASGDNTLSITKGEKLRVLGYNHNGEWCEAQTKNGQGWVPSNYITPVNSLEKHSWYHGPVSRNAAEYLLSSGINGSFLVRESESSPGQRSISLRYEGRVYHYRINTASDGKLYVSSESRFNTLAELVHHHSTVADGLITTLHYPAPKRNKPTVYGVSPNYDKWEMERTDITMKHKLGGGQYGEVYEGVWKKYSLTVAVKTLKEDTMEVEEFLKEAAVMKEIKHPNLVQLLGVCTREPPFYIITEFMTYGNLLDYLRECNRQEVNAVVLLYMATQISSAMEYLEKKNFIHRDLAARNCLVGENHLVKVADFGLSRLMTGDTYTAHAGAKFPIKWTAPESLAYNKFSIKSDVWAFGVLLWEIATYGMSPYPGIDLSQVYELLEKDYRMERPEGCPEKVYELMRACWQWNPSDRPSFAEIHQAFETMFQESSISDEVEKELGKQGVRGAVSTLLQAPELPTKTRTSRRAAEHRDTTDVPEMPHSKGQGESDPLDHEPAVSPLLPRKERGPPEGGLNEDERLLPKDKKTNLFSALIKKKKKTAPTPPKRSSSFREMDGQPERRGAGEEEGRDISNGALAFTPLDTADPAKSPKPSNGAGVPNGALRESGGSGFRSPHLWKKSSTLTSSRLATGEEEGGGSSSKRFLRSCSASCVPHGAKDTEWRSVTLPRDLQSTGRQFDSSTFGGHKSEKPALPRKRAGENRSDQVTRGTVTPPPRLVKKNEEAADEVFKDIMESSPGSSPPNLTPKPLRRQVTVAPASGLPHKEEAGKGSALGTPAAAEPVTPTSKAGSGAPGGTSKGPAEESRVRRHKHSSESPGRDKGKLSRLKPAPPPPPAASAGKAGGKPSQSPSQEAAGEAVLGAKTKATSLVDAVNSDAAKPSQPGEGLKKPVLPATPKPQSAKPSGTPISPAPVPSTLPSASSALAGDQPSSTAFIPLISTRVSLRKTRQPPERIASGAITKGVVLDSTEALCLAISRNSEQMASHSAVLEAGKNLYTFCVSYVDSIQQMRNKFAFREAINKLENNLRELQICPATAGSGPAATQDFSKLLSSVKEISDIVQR
Put plainly: KINOMEscan competition binding, ABL1. To be noted: 10 µM compound; for remaining binding at 10 µM: lower = stronger binding, read-out: ABL1 %Ctrl @ 10000nM. Here is the method:
(§1) The KINOMEscan screening platform (Eurofins DiscoverX Corporation) was performed using active site-directed competition binding assay to quantitatively measure interactions between BK40143 and BK40197 and more than 450 human kinases and disease relevant mutant variants. […] Screening “hits” are identified by measuring the amount of kinase captured in test (BK40143 and BK40197) versus control samples by using a quantitative and ultra-sensitive qRT-PCR method that detects the associated DNA label. BK40143 and BK40197 were screened at 10 µM concentration, and results for primary screen binding interactions were reported as “% Ctrl” (POC), where lower numbers indicate stronger hits and calculated as follows: [test compound signal−positive control signal/negative control signal−positive control signal]×100
(§2) negative control = DMSO (100% Ctrl)
(§3) positive control = control compound (0% Ctrl)
(§4) Based on screening data from of profiled compounds, a proportional relationship between primary screening results and corresponding compound/target affinities can be described as binding constants (Kd values) for the indicated ranges of POC values with tighter binding (higher affinity) interactions associated with lower POC values and weaker binding (lower affinity) associated with higher POC values. Briefly, kinase-tagged T7 phage strains were grown in parallel in 24-well blocks in an E. coli host derived from the BL21 strain. E. coli were grown to log-phase and infected with T7 phage from a frozen stock (multiplicity of infection = 0.4) and incubated with shaking at 32°C until lysis (90–150 min). The lysates were centrifuged (6,000g) and filtered (0.2 μm) to remove cell debris. The remaining kinases were produced in HEK-293 cells and subsequently tagged with DNA for qRT-PCR detection. Streptavidin-coated magnetic beads were treated with biotinylated small molecule ligands for 30 min at RT to generate affinity resins for kinase assays. The liganded beads were blocked with excess biotin and washed with blocking buffer (1% BSA, 0.05% Tween 20, 1 mM DTT; SeaBlock [Pierce]) to remove unbound ligand and to reduce non-specific phage binding. Binding reactions were assembled by combining kinases, liganded affinity beads, and test compounds in 1x binding buffer (20% 0.17x PBS, 0.05% Tween 20, 6 mM DTT; SeaBlock). Test compounds were prepared as 100x stocks in 100% DMSO and directly diluted into the assay. All reactions were performed in polypropylene 384-well plates in a final volume of 0.02 ml. The assay plates were incubated at RT with shaking for 1 h and the affinity beads were washed with wash buffer (1x PBS, 0.05% Tween 20). […] The kinase concentration in the eluates was measured by qRT-PCR.

The next experiment concerns the target T2, PIP5K1A (Homo sapiens, UniProt Q99755).
T2 construct: DNA label for qPCR read-out (T7 phage fusion or DNA tag); purchased Eurofins DiscoverX Corporation; host or cells: T7 phage in E. coli (BL21-derived) or HEK-293
The experiment is described as follows: KINOMEscan competition binding, PIP5K1A. To be noted: 10 µM compound; for remaining binding at 10 µM: lower = stronger binding, read-out: PIP5K1A %Ctrl @ 10000nM (POC). Here is the method: as §1, §2, §3, §4

The target in the next experiment is T3, SYK (Homo sapiens, UniProt P43405).
T3 construct: DNA label for qPCR read-out (T7 phage fusion or DNA tag); purchased Eurofins DiscoverX Corporation; host or cells: T7 phage in E. coli (BL21-derived) or HEK-293
The experiment is described as follows: KINOMEscan competition binding, SYK. To be noted: 10 µM compound; for remaining binding at 10 µM: lower = stronger binding, read-out: SYK %Ctrl @ 10000nM (POC). Here is the method:
as §1, §2, §3, §4

The target in a further experiment is T4, FYN (Homo sapiens, UniProt P06241).
T4 construct: DNA label for qPCR read-out (T7 phage fusion or DNA tag); purchased Eurofins DiscoverX Corporation; host or cells: T7 phage in E. coli (BL21-derived) or HEK-293
T4 sequence (P06241 whole entry, the tested form may be a part): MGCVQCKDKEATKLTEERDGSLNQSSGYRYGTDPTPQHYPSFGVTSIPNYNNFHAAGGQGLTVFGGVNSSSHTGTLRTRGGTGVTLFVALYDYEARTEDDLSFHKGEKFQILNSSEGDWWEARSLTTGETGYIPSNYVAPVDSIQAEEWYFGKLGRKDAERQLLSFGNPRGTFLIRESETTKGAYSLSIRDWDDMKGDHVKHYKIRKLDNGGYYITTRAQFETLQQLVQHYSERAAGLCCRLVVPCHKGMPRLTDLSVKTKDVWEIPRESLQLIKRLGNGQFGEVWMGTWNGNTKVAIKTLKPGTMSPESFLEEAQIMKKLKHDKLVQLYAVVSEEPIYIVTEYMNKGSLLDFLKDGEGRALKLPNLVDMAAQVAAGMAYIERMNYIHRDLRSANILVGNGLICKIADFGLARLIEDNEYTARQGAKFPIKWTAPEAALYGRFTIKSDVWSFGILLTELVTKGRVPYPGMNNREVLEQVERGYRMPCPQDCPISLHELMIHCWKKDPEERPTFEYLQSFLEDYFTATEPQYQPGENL
Put plainly: KINOMEscan competition binding, FYN. The settings on record: 10 µM compound; for remaining binding at 10 µM: lower = stronger binding, read-out: FYN %Ctrl @ 10000nM. Here is the method:
as §1, §2, §3, §4

The target of another experiment is T5, MAP4K4 (Homo sapiens, UniProt O95819).
T5 construct: DNA label for qPCR read-out (T7 phage fusion or DNA tag); purchased Eurofins DiscoverX Corporation; host or cells: T7 phage in E. coli (BL21-derived) or HEK-293
The experiment is described as follows: KINOMEscan competition binding, MAP4K4. To be noted: 10 µM compound; for remaining binding at 10 µM: lower = stronger binding, read-out: MAP4K4 %Ctrl @ 10000nM (POC). Here is the method: as §1, §2, §3, §4

In a further experiment the target is T6, CIT (Homo sapiens, UniProt O14578).
T6 construct: DNA label for qPCR read-out (T7 phage fusion or DNA tag); purchased Eurofins DiscoverX Corporation; host or cells: T7 phage in E. coli (BL21-derived) or HEK-293
T6 sequence (O14578 whole entry, the tested form may be a part): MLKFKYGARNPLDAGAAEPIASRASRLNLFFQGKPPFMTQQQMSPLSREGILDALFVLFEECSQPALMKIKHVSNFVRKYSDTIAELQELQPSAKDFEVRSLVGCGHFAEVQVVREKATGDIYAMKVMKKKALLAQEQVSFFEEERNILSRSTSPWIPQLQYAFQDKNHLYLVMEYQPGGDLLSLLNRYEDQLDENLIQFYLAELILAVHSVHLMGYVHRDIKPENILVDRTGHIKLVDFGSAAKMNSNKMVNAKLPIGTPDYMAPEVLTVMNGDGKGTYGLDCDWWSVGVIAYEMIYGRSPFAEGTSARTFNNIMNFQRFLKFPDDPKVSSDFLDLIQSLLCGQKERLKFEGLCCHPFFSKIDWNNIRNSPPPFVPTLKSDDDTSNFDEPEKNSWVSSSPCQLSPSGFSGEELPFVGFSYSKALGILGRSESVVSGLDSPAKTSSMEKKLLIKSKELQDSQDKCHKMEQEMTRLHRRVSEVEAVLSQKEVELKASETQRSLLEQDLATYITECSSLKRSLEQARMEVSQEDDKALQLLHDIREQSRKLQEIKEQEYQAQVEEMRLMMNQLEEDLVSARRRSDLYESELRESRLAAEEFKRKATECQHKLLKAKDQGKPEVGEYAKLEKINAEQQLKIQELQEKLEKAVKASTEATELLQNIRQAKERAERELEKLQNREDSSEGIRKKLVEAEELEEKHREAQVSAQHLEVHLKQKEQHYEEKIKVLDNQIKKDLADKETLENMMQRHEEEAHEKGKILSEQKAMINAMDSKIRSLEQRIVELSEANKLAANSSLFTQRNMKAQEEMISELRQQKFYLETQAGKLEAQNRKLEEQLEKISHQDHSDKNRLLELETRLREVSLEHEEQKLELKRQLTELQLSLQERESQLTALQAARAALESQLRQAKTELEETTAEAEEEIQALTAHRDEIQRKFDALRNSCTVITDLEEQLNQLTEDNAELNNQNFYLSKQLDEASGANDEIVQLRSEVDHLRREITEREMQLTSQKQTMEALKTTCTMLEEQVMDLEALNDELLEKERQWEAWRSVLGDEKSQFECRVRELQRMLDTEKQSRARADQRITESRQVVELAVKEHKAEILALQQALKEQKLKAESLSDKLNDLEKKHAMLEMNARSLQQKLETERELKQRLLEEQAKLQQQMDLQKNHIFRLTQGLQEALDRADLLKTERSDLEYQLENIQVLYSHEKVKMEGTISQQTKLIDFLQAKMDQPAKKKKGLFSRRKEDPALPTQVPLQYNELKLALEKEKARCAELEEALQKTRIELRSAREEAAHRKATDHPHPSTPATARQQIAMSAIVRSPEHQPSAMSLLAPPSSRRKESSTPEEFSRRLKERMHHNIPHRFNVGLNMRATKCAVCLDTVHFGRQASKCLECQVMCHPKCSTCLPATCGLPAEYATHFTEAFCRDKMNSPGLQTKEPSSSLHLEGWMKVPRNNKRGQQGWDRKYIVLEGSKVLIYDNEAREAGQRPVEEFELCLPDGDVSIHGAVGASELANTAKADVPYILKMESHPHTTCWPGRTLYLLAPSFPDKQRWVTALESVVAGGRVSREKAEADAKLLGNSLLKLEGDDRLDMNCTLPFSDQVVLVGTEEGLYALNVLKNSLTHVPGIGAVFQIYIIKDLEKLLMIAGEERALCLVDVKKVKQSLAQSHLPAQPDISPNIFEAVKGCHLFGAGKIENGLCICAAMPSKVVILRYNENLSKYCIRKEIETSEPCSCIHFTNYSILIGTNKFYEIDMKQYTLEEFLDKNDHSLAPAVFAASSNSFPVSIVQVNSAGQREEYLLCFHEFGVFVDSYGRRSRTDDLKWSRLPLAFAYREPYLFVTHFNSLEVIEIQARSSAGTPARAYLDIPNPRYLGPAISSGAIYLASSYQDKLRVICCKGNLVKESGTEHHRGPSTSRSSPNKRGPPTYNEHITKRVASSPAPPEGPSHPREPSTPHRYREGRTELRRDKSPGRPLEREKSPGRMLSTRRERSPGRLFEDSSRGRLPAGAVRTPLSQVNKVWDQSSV
The experiment is described as follows: KINOMEscan competition binding, CIT. The settings on record: 10 µM compound; for remaining binding at 10 µM: lower = stronger binding, read-out: CIT %Ctrl @ 10000nM (POC). Here is the method:
as §1, §2, §3, §4

Structures are written as SMILES.

T2 sequence (Q99755 whole entry, the tested form may be a part): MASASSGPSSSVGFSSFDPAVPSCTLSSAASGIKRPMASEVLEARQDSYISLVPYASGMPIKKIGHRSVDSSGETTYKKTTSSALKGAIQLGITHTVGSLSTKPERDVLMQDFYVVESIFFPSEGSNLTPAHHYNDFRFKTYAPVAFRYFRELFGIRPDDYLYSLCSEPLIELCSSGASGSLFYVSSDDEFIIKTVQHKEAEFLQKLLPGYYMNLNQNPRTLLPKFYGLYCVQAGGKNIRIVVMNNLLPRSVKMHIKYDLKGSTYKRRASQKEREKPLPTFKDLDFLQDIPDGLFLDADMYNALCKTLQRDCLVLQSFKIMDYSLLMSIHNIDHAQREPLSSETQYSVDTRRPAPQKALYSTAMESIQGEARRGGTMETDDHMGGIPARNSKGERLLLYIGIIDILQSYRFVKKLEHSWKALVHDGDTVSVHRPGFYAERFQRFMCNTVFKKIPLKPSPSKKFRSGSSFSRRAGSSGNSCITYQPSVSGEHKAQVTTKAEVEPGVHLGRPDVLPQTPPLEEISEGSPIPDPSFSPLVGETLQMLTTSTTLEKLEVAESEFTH

Turning to `Cc1cccc(-c2cc3nccc(Nc4ccccc4)c3s2)c1` [BK40143], in the experiment on beclin-1 in TgAPP mice, the “beclin-1 levels in brain (Western blot)” value is “significant increases in levels of beclin-1”. Further, in experiment [1], the “amyloid concentrations in dentate gyrus (6E10 staining)” value is given as “robustly decreased amyloid concentrations in the dentate gyrus of the hippocampus”. The inhibition at 10 µM at ABL1 came to 90%; at PIP5K1A, 68%; at SYK, 94.5%; at FYN, 90%; at MAP4K4, 93.2%; on CIT it was 97.2%. Besides, the remaining binding at 10 µM worked out at 10% at ABL1; 32% at PIP5K1A; 5.5% on SYK; 10% on FYN; 6.8% at MAP4K4; 2.8% on CIT.
As to `Cc1cccc(-c2cc3nccc(N4CCOCC4)c3s2)c1` [BK40197], in the experiment with beclin-1 in TgAPP mice, the “beclin-1 levels in brain (Western blot)” value is listed as “significant increases in levels of beclin-1”. For the same compound, the “amyloid concentrations in dentate gyrus (6E10 staining)” value in experiment [1] is on record as “robustly decreased amyloid concentrations in the dentate gyrus of the hippocampus”. For the same compound, the inhibition at 10 µM on ABL1 is 60%; at PIP5K1A it was 94.9%; on SYK, 56%; at FYN, 44%; at MAP4K4 it was 60%; on CIT, 19%. The remaining binding at 10 µM on ABL1 turned out to be 40%; on PIP5K1A, 5.1%; at SYK, 44%; on FYN, 56%; on MAP4K4, 40%; on CIT, 81%.

Broadly, the inhibition is the drop in the measured response relative to a control, in per cent.
